Test results from patent US7179842B2, “Method of treating non-insulin dependent diabetes mellitus with phytanic acid derivatives” (priority 2000, dated 2007).
Where two headings read alike, the source gives them in different places. Each block holds one molecule with its values, some of them ahead of it.

How the values were obtained:
RXR [1] = conditions: cited from earlier work
[2] = biological target: all-trans-retinoic acid receptor (RAR); conditions: cited from earlier work
GLUT-1 mRNA = assay: Quantitative RT-PCR (TaqMan) mRNA level, GLUT-1; assay type: cell-based, rat; conditions: for GLUT-1 mRNA levels / GLUT-1 mRNA induction: 24 h
Protocol: (§1) The data is presented as means of 3 independent experiments.
(§2) For the quantification of the expression levels the novel Real Time Quantitative TaqMan™ PCR using the multiplex method was employed. Total RNA was isolated using the RNeasy kit from QIAGEN (Valencia, Calif.). The first strand cDNA was synthesized in a 20 μl reaction from 5 μg total RNA by reverse transcription with the. […] Subsequently the cDNA was diluted to 500 μl. In a 50 μl reaction, 10 μl cDNA was amplified in the 7700 Sequence Detector (PE Biosystems, Foster City, Calif.), using the Universal Master Mix (PE Biosystems, Foster City, Calif.) and the following PCR-primers and TaqMan™-probes at the concentrations of 300 nM and 100 nM, respectively, and PCR-primers and TaqMan™-probes for the reference gene β-actin at concentration of 50 nM.
(§3) The induction of gene expression, and corresponding error bars were calculated from 3 independent experiments using the ΔCT method according to the manufacturer's protocol.

glucokinase mRNA = assay: Quantitative RT-PCR (TaqMan) mRNA level, glucokinase; assay type: cell-based, rat; conditions: 100 μM, 24 h
Protocol: as §1, §2, §3

PEPCK mRNA = assay: Quantitative RT-PCR (TaqMan) mRNA level, PEPCK; assay type: cell-based, rat
Protocol: as §1, §2, §3

GLUT-2 mRNA = assay: Quantitative RT-PCR (TaqMan) mRNA level, GLUT-2; assay type: cell-based, rat; conditions: 24 h
Protocol: as §1, §2, §3

Rat primary hepatocytes [3] = assay: [3H]-2-deoxy-D-glucose uptake in hepatocytes; assay type: cell-based; conditions: 24 h treatment
Protocol: Rat primary hepatocytes were cultured for 24 h at 37° C. in media containing phytanic acid 10 μM (□) and 100 μM (▪), palmitic acid 100 μM ( ), DHA 100 μM (∘), and control (▴). Subsequently [3H]-2-deoxy-D-glucose uptake was measured after 15, 30, and 60 min incubation period.
Cells cultured in 24-well plates were treated for 24 h with phytanic acid, palmitic acid, and DHA. Subsequently the medium was removed and cells were washed twice with pre-warmed phosphate buffered saline, pH 7.4 (PBS). 500 μl of pre-warmed glucose reaction mixture (0.01 mM 2-deoxy-D-glucose and 3 μCi/ml [3H]-2-deoxy-D-glucose in PBS) was then added to the cells. The reaction mixture was further incubated at 37° C. for different time intervals. The reaction was terminated by aspirating the reaction mixture and washing the cells twice with ice cold 10 mM 2-deoxy-D-glucose in PBS. Cells were then solubilized with 500 μl of 1% sodium dodecyl sulfate, 400 μl of which was transferred to scintillation vials containing 5 ml Quickszint 1 (Zinsser Analytic, Frankfurt, Germany). Radioactivity was counted in a Tri-Carb 2500 (Packard, Meriden, Conn.) liquid scintillation counter. The remaining lysate was used for protein content determination with the BCA Protein Assay Reagent Kit (Pierce, Rockford, Ill.). Data are expressed as means±SD from 3 independent experiments.

[4] = test system: cytochrome P450/4A1 (Cyp4al) mRNA; assay: Quantitative RT-PCR (TaqMan) mRNA level, Cyp4a1; assay type: cell-based, rat; conditions: 10 μM for 24 h
Protocol: (§4) The mRNA levels were determined with the TaqMan™ methodology after a 24 h stimulation of the rat primary hepatocytes with 10 μM phytanic acid, palmitic acid, and DHA. mRNA levels were normalized to β-actin expression and expressed relative to untreated cells. The data is presented as means of 3 independent experiments. Error bars were calculated as described in Example 3.
(§5) For the quantification of the expression levels the novel Real Time Quantitative TaqMan™ PCR using the multiplex method was employed. Total RNA was isolated using the RNeasy kit from QIAGEN (Valencia, Calif.). The first strand cDNA was synthesized in a 20 μl reaction from 5 μg total RNA by reverse transcription with the. SuperScriptII™ Reverse Transcriptase Kit (Life Technologies Inc., Coralville Iowa) and 100 ng random hexamers, as previously described (Zimmermann, U., Fluehmann, B., Born, W., Fischer, J., A. & Muff, R. (1997) Coexistence of Novel Amylin-Binding Sites With Calcitonin Receptors in Human Breast Carcinoma Mcf-7 Cells, Journal of Endocrinology. 155, 423–431). Subsequently the cDNA was diluted to 500 μl. […]
as §3

[5] = test system: lipoprotein lipase (LPL) mRNA; assay: Quantitative RT-PCR (TaqMan) mRNA level, LPL; assay type: cell-based, rat; conditions: 10 μM for 24 h
Protocol: as §4, §5, §3

Rat primary hepatocytes [6] = conditions: 24 h, 1 mM
[7] = test system: liver fatty acid binding protein (LFABP) mRNA; assay: Quantitative RT-PCR (TaqMan) mRNA level, LFABP; assay type: cell-based, rat; conditions: 10 μM for 24 h
Protocol: as §4, §5, §3

[8] = test system: low-density lipoprotein receptor (LDLR) mRNA; assay: Quantitative RT-PCR (TaqMan) mRNA level, LDLR; assay type: cell-based, rat; conditions: 10 μM for 24 h
Protocol: as §4, §5, §3

[9] = test system: apolipoprotein A1 (ApoA1) mRNA; assay: Quantitative RT-PCR (TaqMan) mRNA level, ApoA1; assay type: cell-based, rat; conditions: 10 μM for 24 h
Protocol: as §4, §5, §3

[10] = test system: tumor necrosis factor α (TNFα) mRNA; assay: Quantitative RT-PCR (TaqMan) mRNA level, TNFα; assay type: cell-based, rat; conditions: 10 μM for 24 h
Protocol: as §4, §5, §3

HMG-CoA reductase mRNA = assay: Quantitative RT-PCR (TaqMan) mRNA level, HMG-CoA reductase; assay type: cell-based, rat; conditions: 10 μM for 24 h
Protocol: as §4, §5, §3

[11] = test system: apolipoprotein E (ApoE) mRNA; assay: Quantitative RT-PCR (TaqMan) mRNA level, ApoE; assay type: cell-based, rat; conditions: 10 μM for 24 h
Protocol: as §4, §5, §3

PPARα = biological target: T1, PPARα (Homo sapiens, UniProt Q07869); conditions: read-out: Kd-value as PPARα ligand; cited from earlier work
T1 sequence (Q07869 1-468): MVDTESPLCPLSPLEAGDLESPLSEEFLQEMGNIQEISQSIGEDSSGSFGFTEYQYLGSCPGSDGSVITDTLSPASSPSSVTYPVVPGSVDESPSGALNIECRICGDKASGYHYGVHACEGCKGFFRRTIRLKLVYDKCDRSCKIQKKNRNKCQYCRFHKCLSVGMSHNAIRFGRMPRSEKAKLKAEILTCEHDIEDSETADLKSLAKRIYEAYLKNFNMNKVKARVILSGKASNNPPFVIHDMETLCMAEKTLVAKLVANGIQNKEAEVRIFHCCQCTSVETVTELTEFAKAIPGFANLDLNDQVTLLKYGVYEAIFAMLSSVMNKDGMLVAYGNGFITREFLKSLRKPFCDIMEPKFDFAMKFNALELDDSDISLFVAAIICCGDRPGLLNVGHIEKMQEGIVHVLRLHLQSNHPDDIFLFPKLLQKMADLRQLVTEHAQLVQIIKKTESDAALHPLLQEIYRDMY

RXR [12] = conditions: read-out: RXR receptor binding IC50; cited from earlier work
plasma insulin = assay: In vivo study, plasma insulin in rats fed phytanic acid; design: species or system male Wistar rats; conditions: 150 and 750 mg phytanic acid/kg feed, day 7, vs control chow
Protocol: Male Wistar rats were adapted for two days and then fed with the respective substance. The values are means±SD (see Example 4).
To determine the beneficial effect of phytanic acid on plasma insulin levels, a study was performed using male Wistar rats. The animals were adapted for two days and then fed with control chow, 150 mg phytanic acid/kg feed (P-10), and 750 mg phytanic acid/kg feed (P-50), respectively. Blood samples were taken at day 7 and the insulin concentration in the plasma was measured (FIG. 7).

[13] = cited from earlier work
[14] = adult mice, 0.5% phytol diet for 21 days; cited from earlier work
[15] = concentrations lower than 100 μM

Compound: CC1=C(/C=C/C(C)=C\C=C\C(C)=C\C(=O)O)C(C)(C)CCC1 [9-cis-retinoic acid, reference compound]
EC50 ([2]; read-out: RAR activation EC50): 13 nM

Compound: CC/C=C\C/C=C\C/C=C\C/C=C\C/C=C\C/C=C\CCC(=O)O [DHA, docohexaenoic acid, reference compound]
GLUT-1 mRNA levels (GLUT-1 mRNA; concentrations up to 100 μM): did not affect
transcription of glucokinase mRNA (glucokinase mRNA): reduced
transcription of PEPCK mRNA (PEPCK mRNA; 100 μM, 24 h): reduced
GLUT-2 mRNA levels (GLUT-2 mRNA): did not affect

transcription of glucokinase mRNA (glucokinase mRNA): reduced
Compound: CCCCCCCCCCCCCCCC(=O)O [palmitic acid, reference compound]
GLUT-1 mRNA induction (GLUT-1 mRNA; 100 μM): 2.4 (1.7–3.3) fold
GLUT-1 mRNA levels (GLUT-1 mRNA; [15]): did not affect
transcription of PEPCK mRNA (PEPCK mRNA; 100 μM, 24 h): reduced
GLUT-2 mRNA levels (GLUT-2 mRNA; low concentrations): minor induction

Compound: CC(C)CCCC(C)CCCC(C)CCCC(C)CC(=O)O (stereo not shown) [phytanic acid]
GLUT-1 mRNA induction (GLUT-1 mRNA; 100 μM): 2.2 (1.6–2.9) fold
GLUT-1 mRNA maximal induction (GLUT-1 mRNA; 100 μM, after 6 hours, normalized to β-actin, relative to untreated): 5.6 (5.1–6.2) fold
GLUT-1 mRNA levels (GLUT-1 mRNA; [15]): did not affect
2-deoxy-D-glucose uptake vs control, palmitic acid or DHA (Rat primary hepatocytes [3]; 100 μM, uptake over 15, 30, 60 min): substantial increase
2-deoxy-D-glucose uptake (Rat primary hepatocytes [3]; [15]): no measurable effect
Cyp4a1 transcript [4]: increase
EC50 (RXR [1]; read-out: RXR transcriptional effects EC50): 3000 nM
activity on retinoid receptors (RXR vs RAR) [2]: restricted to RXR receptors
LPL transcript [5]: increase
cells survived compared to untreated (Rat primary hepatocytes [6]): 54±17%
LFABP mRNA levels [7]: remained unaffected
LDLR transcript [8]: increase
ApoA1 mRNA [9]: downregulated
TNFα transcript [10]: increase
HMG-CoA reductase transcript (HMG-CoA reductase mRNA): increase
ApoE mRNA [11]: downregulated
glucokinase mRNA induction (glucokinase mRNA): 3.0 (2.5–3.4) fold
Kd (PPARα): 10 nM
PEPCK transcript (PEPCK mRNA; 10 μM for 24 h): increase
PEPCK mRNA induction (PEPCK mRNA; 100 μM, 24 h): 2.5 (1.7–3.6) fold
PEPCK mRNA maximal induction (PEPCK mRNA; 100 μM, after 6 hours): 4.4 (3.4–5.7) fold
IC50 (RXR [12]): 2300 nM
plasma insulin (plasma insulin): could reduce the plasma insulin
GLUT-2 mRNA maximal induction (GLUT-2 mRNA; 100 μM): 3.2 (2.7–3.8) fold
GLUT-2 mRNA induction (GLUT-2 mRNA; 0.01–100 μM): at least 2 fold

Compound: C/C(=C\CO)CCC[C@H](C)CCC[C@H](C)CCCC(C)C [phytol]
intestinal absorption from dietary chlorophyll ([13]; rat and man): minimal
absorption compared with phytanic acid ([13]; rats): much less well adsorbed than phytanic acid
cholesterol serum levels [14]: remained unaffected
decrease in triglyceride serum levels [14]: 40%
